Results: ChEMBL document CHEMBL5131506, “Exploration of 2-phenylquinoline-4-carboxamide linked benzene sulfonamide derivatives as isoform selective inhibitors of transmembrane human carbonic anhydrases” (Eur J Med Chem, 2022)

Legend:
[1] = target: Carbonic anhydrase 1 (Homo sapiens, UniProt P00915); test: Inhibition of human recombinant carbonic anhydrase 1 assessed as inhibition constant incubated for 10 mins by phenol red dye based stopped-flow CO2 hydration assay
[2] = target: Carbonic anhydrase 2 (Homo sapiens, UniProt P00918); test: Inhibition of human recombinant carbonic anhydrase 2 assessed as inhibition constant incubated for 10 mins by phenol red dye based stopped-flow CO2 hydration assay
[3] = target: Carbonic anhydrase 12 (Homo sapiens, UniProt O43570); test: Inhibition of human recombinant carbonic anhydrase 12 assessed as inhibition constant incubated for 10 mins by phenol red dye based stopped-flow CO2 hydration assay
Chain of Carbonic anhydrase 12 (O43570 whole entry): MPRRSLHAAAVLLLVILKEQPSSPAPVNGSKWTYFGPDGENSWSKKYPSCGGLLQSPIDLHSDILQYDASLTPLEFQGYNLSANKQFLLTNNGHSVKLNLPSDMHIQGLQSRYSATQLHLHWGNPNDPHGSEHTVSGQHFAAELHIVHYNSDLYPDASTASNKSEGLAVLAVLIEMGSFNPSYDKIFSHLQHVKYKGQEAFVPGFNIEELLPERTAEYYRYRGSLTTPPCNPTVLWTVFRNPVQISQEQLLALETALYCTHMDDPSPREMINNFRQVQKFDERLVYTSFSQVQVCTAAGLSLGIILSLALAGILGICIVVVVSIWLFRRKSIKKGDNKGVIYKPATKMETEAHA

[4] = target: Carbonic anhydrase 9 (Homo sapiens, UniProt Q16790); test: Inhibition of human recombinant carbonic anhydrase 9 assessed as inhibition constant incubated for 10 mins by phenol red dye based stopped-flow CO2 hydration assay
[5] = target: Carbonic anhydrase 4 (Homo sapiens, UniProt P22748); test: Inhibition of human recombinant carbonic anhydrase 4 assessed as inhibition constant incubated for 10 mins by phenol red dye based stopped-flow CO2 hydration assay
Chain of Carbonic anhydrase 4 (P22748 whole entry): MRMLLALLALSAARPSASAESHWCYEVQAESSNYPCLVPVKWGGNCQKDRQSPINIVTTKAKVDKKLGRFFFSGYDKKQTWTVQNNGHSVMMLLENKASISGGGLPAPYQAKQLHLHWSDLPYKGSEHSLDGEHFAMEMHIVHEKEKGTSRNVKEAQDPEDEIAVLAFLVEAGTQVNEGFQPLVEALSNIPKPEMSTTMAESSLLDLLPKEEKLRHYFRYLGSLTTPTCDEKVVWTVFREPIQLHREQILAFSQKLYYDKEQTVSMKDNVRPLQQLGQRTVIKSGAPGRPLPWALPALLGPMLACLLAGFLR

Chain of Carbonic anhydrase 1 (P00915 whole entry): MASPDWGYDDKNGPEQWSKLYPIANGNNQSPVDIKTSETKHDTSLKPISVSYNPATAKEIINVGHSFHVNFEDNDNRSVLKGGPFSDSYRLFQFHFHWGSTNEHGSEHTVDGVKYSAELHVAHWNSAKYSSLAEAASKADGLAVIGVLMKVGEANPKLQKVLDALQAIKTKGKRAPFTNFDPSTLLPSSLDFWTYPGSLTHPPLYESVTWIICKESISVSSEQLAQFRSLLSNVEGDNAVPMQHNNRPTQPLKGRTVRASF

## NS(=O)(=O)c1cc(C(=O)CSc2nc3c(cnc4ccccc43)[nH]2)ccc1Cl
[1]
  Ki: 1.3 nM
[2]
  Ki: 0.03 nM
[3]
  Ki: 0.1 nM

## O=C(/C=C/c1sc(N2CCOCC2)nc1-c1ccc([N+](=O)[O-])cc1)Nc1ccc(Br)cc1
[4]
  Ki: 54.7 nM
[2]
  Ki: 9.3 nM
[3]
  Ki: 8.8 nM

## NS(=O)(=O)c1ccc(NC(=O)c2cc(-c3cccc(Cl)c3)nc3ccccc23)cc1
[4]
  Ki: 97.1 nM
[1]
  Ki: 838 nM
[2]
  Ki: 141 nM
[3]
  Ki: 72.8 nM

## NS(=O)(=O)c1ccc(CCNC(=O)c2cc(-c3ccccc3)nc3ccc(Cl)cc23)cc1
[4]
  Ki: 47.6 nM
[1]
  Ki: 1890 nM
[2]
  Ki: 42.9 nM
[3]
  Ki: 6.7 nM

## COc1ccc2nc(-c3ccc(Cl)cc3Cl)cc(C(=O)NCCc3ccc(S(N)(=O)=O)cc3)c2c1
[4]
  Ki: 73.8 nM
[1]
  Ki: 6340 nM
[2]
  Ki: 674 nM
[3]
  Ki: 438 nM

## COc1ccc2nc(-c3ccc(OC)c(OC)c3)cc(C(=O)NCCc3ccc(S(N)(=O)=O)cc3)c2c1
[4]
  Ki: 70.3 nM
[1]
  Ki: 5540 nM
[2]
  Ki: 588 nM
[3]
  Ki: 218 nM

## COc1ccc2nc(-c3ccccc3OC)cc(C(=O)NCCc3ccc(S(N)(=O)=O)cc3)c2c1
[4]
  Ki: 67.7 nM
[1]
  Ki: 902 nM
[2]
  Ki: 382 nM
[3]
  Ki: 851 nM

## COc1ccc2nc(-c3ccccc3)cc(C(=O)Nc3ccc(S(N)(=O)=O)cc3)c2c1
[4]
  Ki: 35.7 nM
[1]
  Ki: 535 nM
[2]
  Ki: 91.3 nM
[3]
  Ki: 56.7 nM

## COc1ccc(-c2cc(C(=O)Nc3cccc(S(N)(=O)=O)c3)c3ccccc3n2)cc1OC
[4]
  Ki: 78.2 nM
[1]
  Ki: 888 nM
[2]
  Ki: 388 nM
[3]
  Ki: 76.2 nM

## NS(=O)(=O)c1cccc(NC(=O)c2cc(-c3ccccc3)nc3ccc(Cl)cc23)c1
[4]
  Ki: 330 nM
[1]
  Ki: 6600 nM
[2]
  Ki: 172 nM
[3]
  Ki: 71.1 nM

## COc1ccc(-c2cc(C(=O)Nc3ccc(S(N)(=O)=O)cc3)c3cc(Cl)ccc3n2)cc1OC
[4]
  Ki: 309 nM
[1]
  Ki: 797 nM
[2]
  Ki: 305 nM
[3]
  Ki: 215 nM

## COc1ccc2nc(-c3ccc(Cl)cc3Cl)cc(C(=O)Nc3cccc(S(N)(=O)=O)c3)c2c1
[4]
  Ki: 93.5 nM
[1]
  Ki: 896 nM
[2]
  Ki: 61.7 nM
[3]
  Ki: 64.8 nM

## COc1ccc2nc(-c3ccc(OC)c(OC)c3)cc(C(=O)Nc3ccc(S(N)(=O)=O)cc3)c2c1
[4]
  Ki: 9.1 nM
[1]
  Ki: 416 nM
[2]
  Ki: 26.2 nM
[3]
  Ki: 75.5 nM

## Cc1ccc(-c2cc(C(=O)Nc3cccc(S(N)(=O)=O)c3)c3cc(Cl)ccc3n2)cc1
[4]
  Ki: 245 nM
[1]
  Ki: 3940 nM
[2]
  Ki: 293 nM
[3]
  Ki: 757 nM

## COc1ccc2nc(-c3ccccc3C)cc(C(=O)Nc3ccc(S(N)(=O)=O)cc3)c2c1
[4]
  Ki: 21.4 nM
[1]
  Ki: 555 nM
[2]
  Ki: 28.5 nM
[3]
  Ki: 46.9 nM

## NS(=O)(=O)c1ccc(NC(=O)Cn2cc(/C=C/C(=O)c3cccc(C(F)(F)F)c3)c3ccccc32)cc1
[4]
  Ki: 31 nM
[2]
  Ki: 2.3 nM

## NS(=O)(=O)c1cccc(NC(=O)c2cc(-c3ccccc3)nc3ccccc23)c1
[4]
  Ki: 67.4 nM
[1]
  Ki: 966 nM
[2]
  Ki: 298 nM
[3]
  Ki: 9.6 nM

## COc1ccc(-c2cc(C(=O)Nc3cccc(S(N)(=O)=O)c3)c3cc(Cl)ccc3n2)cc1OC
[4]
  Ki: 247 nM
[1]
  Ki: 831 nM
[2]
  Ki: 253 nM
[3]
  Ki: 423 nM

## NS(=O)(=O)c1cccc(NC(=O)c2cc(-c3ccc4c(c3)OCO4)nc3ccccc23)c1
[4]
  Ki: 65.4 nM
[1]
  Ki: 1460 nM
[2]
  Ki: 478 nM
[3]
  Ki: 88.9 nM

## COc1ccc(-c2cc(C(=O)NCCc3ccc(S(N)(=O)=O)cc3)c3ccccc3n2)cc1OC
[4]
  Ki: 9.7 nM
[1]
  Ki: 91.8 nM
[2]
  Ki: 35.2 nM
[3]
  Ki: 88.5 nM

## NS(=O)(=O)c1cccc(NC(=O)c2cc(-c3cccc(Br)c3)nc3ccccc23)c1
[4]
  Ki: 91.3 nM
[1]
  Ki: 854 nM
[2]
  Ki: 156 nM
[3]
  Ki: 341 nM

## NS(=O)(=O)c1cccc(NC(=O)c2cc(-c3cccc(C(F)(F)F)c3)nc3ccccc23)c1
[4]
  Ki: 64.6 nM
[1]
  Ki: 3770 nM
[2]
  Ki: 87.8 nM
[3]
  Ki: 365 nM

## NS(=O)(=O)c1ccc(CCNC(=O)c2cc(-c3ccc4c(c3)OCO4)nc3ccccc23)cc1
[4]
  Ki: 22.8 nM
[1]
  Ki: 3620 nM
[2]
  Ki: 18.3 nM
[3]
  Ki: 555 nM

## NS(=O)(=O)c1ccc(CCNC(=O)c2cc(-c3ccccc3)nc3ccc(Br)cc23)cc1
[4]
  Ki: 58.8 nM
[1]
  Ki: 6280 nM
[2]
  Ki: 867 nM
[3]
  Ki: 758 nM

## NS(=O)(=O)c1ccc(NC(=O)c2cc(-c3cccc(C(F)(F)F)c3)nc3ccccc23)cc1
[4]
  Ki: 421 nM
[1]
  Ki: 659 nM
[2]
  Ki: 262 nM
[3]
  Ki: 169 nM

## NS(=O)(=O)c1ccc(NC(=O)c2cc(-c3ccc4c(c3)OCO4)nc3ccccc23)cc1
[4]
  Ki: 6.5 nM
[1]
  Ki: 256 nM
[2]
  Ki: 7.1 nM
[3]
  Ki: 72.1 nM

## COc1ccc(-c2cc(C(=O)Nc3ccc(S(N)(=O)=O)cc3)c3ccccc3n2)c(OC)c1
[4]
  Ki: 93.2 nM
[1]
  Ki: 5320 nM
[2]
  Ki: 598 nM
[3]
  Ki: 261 nM

## NS(=O)(=O)c1ccc(CCNC(=O)c2cc(-c3cccc(Br)c3)nc3ccccc23)cc1
[4]
  Ki: 39.3 nM
[1]
  Ki: 977 nM
[2]
  Ki: 9.6 nM
[3]
  Ki: 30.9 nM

## COc1ccc2nc(-c3ccccc3OC)cc(C(=O)Nc3ccc(S(N)(=O)=O)cc3)c2c1
[4]
  Ki: 37.2 nM
[1]
  Ki: 283 nM
[2]
  Ki: 44.5 nM
[3]
  Ki: 8.8 nM

## CCN(C1CC(C)S(=O)(=O)c2sc(S(N)(=O)=O)cc21)S(=O)(=O)c1cccc2cccnc12 (stereo not drawn)
[2]
  Ki: 5 nM
[5]
  Ki: 10 nM

## NS(=O)(=O)c1cccc(NC(=O)c2cc(-c3cccc(Cl)c3)nc3ccc(Cl)cc23)c1
[4]
  Ki: 349 nM
[1]
  Ki: 848 nM
[2]
  Ki: 257 nM
[3]
  Ki: 527 nM

## NS(=O)(=O)c1ccc(CCNC(=O)c2cc(-c3cccc(C(F)(F)F)c3)nc3ccccc23)cc1
[4]
  Ki: 74.2 nM
[1]
  Ki: 1820 nM
[2]
  Ki: 91.1 nM
[3]
  Ki: 6.9 nM

## COc1ccc2nc(-c3ccccc3)cc(C(=O)NCCc3ccc(S(N)(=O)=O)cc3)c2c1
[4]
  Ki: 75.5 nM
[1]
  Ki: 933 nM
[2]
  Ki: 487 nM
[3]
  Ki: 391 nM

## COc1ccc2nc(-c3ccc(OC)c(OC)c3)cc(C(=O)Nc3cccc(S(N)(=O)=O)c3)c2c1
[4]
  Ki: 51.3 nM
[1]
  Ki: 665 nM
[2]
  Ki: 97.8 nM
[3]
  Ki: 426 nM

## NS(=O)(=O)c1ccc(NC(=O)c2cc(-c3ccccc3)nc3ccccc23)cc1
[4]
  Ki: 70.4 nM
[1]
  Ki: 537 nM
[2]
  Ki: 54.7 nM
[3]
  Ki: 130 nM

## COc1ccc(-c2cc(C(=O)NCCc3ccc(S(N)(=O)=O)cc3)c3cc(Cl)ccc3n2)cc1OC
[4]
  Ki: 91.6 nM
[1]
  Ki: 765 nM
[2]
  Ki: 187 nM
[3]
  Ki: 302 nM
